# Active and inactive are the calls of the source. The calls are words filed in the database; no cut-off is given here.
# Biological target: T1, Prostaglandin G/H synthase 1 (Homo sapiens, UniProt P23219)
# Test: Inhibition of COX-1 in human washed platelet assessed as rightward shift in 10 uM arachidonic acid-induced TXB2 formation at 0.01 to 100 uM incubated for 25 mins prior to arachidonic acid challenge measured after 30 mins by radioimmunoassay
# Conditions: not given
# T1 sequence (P23219 whole entry): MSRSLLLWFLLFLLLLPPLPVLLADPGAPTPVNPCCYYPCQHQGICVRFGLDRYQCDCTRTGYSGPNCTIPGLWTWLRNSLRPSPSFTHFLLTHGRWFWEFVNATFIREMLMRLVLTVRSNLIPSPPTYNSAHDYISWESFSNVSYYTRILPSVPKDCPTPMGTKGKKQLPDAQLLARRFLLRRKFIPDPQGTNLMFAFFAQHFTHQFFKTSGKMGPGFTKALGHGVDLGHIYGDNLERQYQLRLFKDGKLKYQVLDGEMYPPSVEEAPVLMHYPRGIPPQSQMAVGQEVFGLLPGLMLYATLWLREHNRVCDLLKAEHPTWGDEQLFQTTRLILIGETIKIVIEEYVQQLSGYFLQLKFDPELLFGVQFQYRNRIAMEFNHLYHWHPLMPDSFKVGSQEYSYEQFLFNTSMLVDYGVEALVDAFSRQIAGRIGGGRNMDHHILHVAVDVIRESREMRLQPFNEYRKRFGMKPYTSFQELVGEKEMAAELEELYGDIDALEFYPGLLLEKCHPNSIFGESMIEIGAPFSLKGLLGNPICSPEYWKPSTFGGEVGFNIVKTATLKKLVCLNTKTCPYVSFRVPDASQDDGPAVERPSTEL
row,inhibition,SMILES
1,Active,CC(=O)OCc1onc(-c2ccc(Cl)o2)c1-c1ccccc1

# Biological target: T1, Prostaglandin G/H synthase 1
# Test: Inhibition of COX-1 (unknown origin) in platelet rich plasma assessed as inhibition of arachidonic acid-induced platelet aggregation at 10 uM incubated for 5 mins prior to arachidonic acid challenge measured for 5 mins by aggregometric analysis relative to vehicle-treated control
# Conditions: not given
row,inhibition,SMILES
1,99.2%,FC(F)(F)c1onc(-c2ccc(Cl)o2)c1-c1ccccc1
2,96.3%,Cc1onc(-c2ccc(Br)o2)c1-c1ccccc1

# Biological target: T1, Prostaglandin G/H synthase 1
# Test: Inhibition of COX-1 in human THP1 cells assessed as inhibition of arachidonic acid-induced TXB2 formation at 100 uM incubated for 30 mins prior to arachidonic acid challenge measured after 30 mins by radioimmunoassay relative to vehicle-treated control
# Type: cell-based
# Conditions: THP-1
row,inhibition,SMILES
1,> 90%,FC(F)(F)c1onc(-c2ccc(Cl)o2)c1-c1ccccc1
2,> 90%,Cc1onc(-c2ccc(Br)o2)c1-c1ccccc1
3,> 90%,CC(=O)OCc1onc(-c2ccc(Cl)o2)c1-c1ccccc1

# Tested on: not listed separately
# Test: Binding affinity to human alpha1-acid glycoprotein by HPLC analysis relative to control
# Type: ADME
# Conditions: pooled result: one value given for 2 cell lines, strains, targets or settings
row,Activity,SMILES
1,94.3%,FC(F)(F)c1onc(-c2ccc(Cl)o2)c1-c1ccccc1
2,96.1%,Cc1onc(-c2ccc(Br)o2)c1-c1ccccc1

# Biological target: T1, Prostaglandin G/H synthase 1
# Test: not given
# Conditions: at 0.01 to 100 µM
row,inhibition,SMILES
1,Active,FC(F)(F)c1onc(-c2ccc(Cl)o2)c1-c1ccccc1
2,Active,Cc1onc(-c2ccc(Br)o2)c1-c1ccccc1
3,Active,CC(=O)OCc1onc(-c2ccc(Cl)o2)c1-c1ccccc1

# Biological target: Prostaglandin G/H synthase 2 (Homo sapiens) (UniProt P35354)
# Test: Reversible inhibition of COX-2 in human MDA-MB-231 cells assessed as inhibition of arachidonic acid-induced PGE2 formation at 100 uM incubated for 30 mins followed by compound washout measured 30 mins post arachidonic acid challenge by radioimmunoassay
# Conditions: not given
row,inhibition,SMILES
1,Active,FC(F)(F)c1onc(-c2ccc(Cl)o2)c1-c1ccccc1
2,Active,Cc1onc(-c2ccc(Br)o2)c1-c1ccccc1

# Biological target: T1, Prostaglandin G/H synthase 1
# Test: Inhibition of COX-1 (unknown origin) in platelet rich plasma assessed as inhibition of collagen-induced platelet aggregation at 30 uM incubated for 5 mins prior to collagen challenge measured for 5 mins by aggregometric analysis relative to vehicle-treated control
# Conditions: not given
row,inhibition,SMILES
1,62%,CC(=O)OCc1onc(-c2ccc(Cl)o2)c1-c1ccccc1

# Biological target: T1, Prostaglandin G/H synthase 1
# Test: Inhibition of COX-1 (unknown origin) in platelet rich plasma assessed as inhibition of arachidonic acid-induced platelet aggregation up to 3 uM incubated for 5 mins prior to arachidonic acid challenge measured for 5 mins by aggregometric analysis
# Conditions: not given
row,inhibition,SMILES
1,inactive,FC(F)(F)c1onc(-c2ccc(Cl)o2)c1-c1ccccc1
2,inactive,Cc1onc(-c2ccc(Br)o2)c1-c1ccccc1

# Biological target: T1, Prostaglandin G/H synthase 1
# Test: Inhibition of COX-1 (unknown origin) in platelet rich plasma assessed as inhibition of collagen-induced TXB2 formation incubated for 5 mins prior to collagen challenge measured for 5 mins by aggregometric analysis
# Conditions: not given
IC50,inhibition,SMILES
10 µM,Dose-dependent effect,FC(F)(F)c1onc(-c2ccc(Cl)o2)c1-c1ccccc1
7.6 µM,Dose-dependent effect,Cc1onc(-c2ccc(Br)o2)c1-c1ccccc1
23 µM,,CC(=O)OCc1onc(-c2ccc(Cl)o2)c1-c1ccccc1

# Biological target: T1, Prostaglandin G/H synthase 1
# Test: Inhibition of COX-1 (unknown origin) in platelet rich plasma assessed as inhibition of collagen-induced platelet aggregation incubated for 5 mins prior to collagen challenge measured for 5 mins by aggregometric analysis
# Conditions: not given
row,inhibition,SMILES
1,Dose-dependent effect,FC(F)(F)c1onc(-c2ccc(Cl)o2)c1-c1ccccc1
2,Dose-dependent effect,Cc1onc(-c2ccc(Br)o2)c1-c1ccccc1

# Biological target: T1, Prostaglandin G/H synthase 1
# Test: Irreversible inhibition of COX-1 in human THP1 cells assessed as inhibition of arachidonic acid-induced TXB2 formation at 100 uM incubated for 30 mins followed by compound washout measured 30 mins post arachidonic acid challenge by radioimmunoassay
# Type: cell-based
# Conditions: THP-1
row,inhibition,SMILES
1,Active,FC(F)(F)c1onc(-c2ccc(Cl)o2)c1-c1ccccc1
2,Active,Cc1onc(-c2ccc(Br)o2)c1-c1ccccc1

# Biological target: T2, Prostaglandin G/H synthase 2 (Homo sapiens, UniProt P35354)
# T2 sequence (P35354 whole entry): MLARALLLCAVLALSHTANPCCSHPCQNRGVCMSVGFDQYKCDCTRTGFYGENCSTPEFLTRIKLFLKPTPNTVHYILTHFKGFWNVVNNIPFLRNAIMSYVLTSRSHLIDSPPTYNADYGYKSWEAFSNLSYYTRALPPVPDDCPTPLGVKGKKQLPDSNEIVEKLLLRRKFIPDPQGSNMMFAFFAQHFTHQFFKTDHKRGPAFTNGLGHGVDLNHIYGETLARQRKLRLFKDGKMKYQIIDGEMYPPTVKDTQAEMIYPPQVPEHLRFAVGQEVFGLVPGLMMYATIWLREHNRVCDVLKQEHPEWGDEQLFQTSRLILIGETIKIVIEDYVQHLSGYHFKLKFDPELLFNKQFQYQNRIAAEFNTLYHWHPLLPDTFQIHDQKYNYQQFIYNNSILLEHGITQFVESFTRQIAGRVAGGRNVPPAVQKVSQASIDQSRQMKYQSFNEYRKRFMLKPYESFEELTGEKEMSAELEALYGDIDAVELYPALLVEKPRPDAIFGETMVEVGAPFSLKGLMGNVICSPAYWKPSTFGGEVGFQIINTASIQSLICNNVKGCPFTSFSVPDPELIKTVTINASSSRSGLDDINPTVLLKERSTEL
# Test: Inhibition of COX-2 in human whole blood assessed as inhibition of LPS-induced plasma PGE2 level by radioimmunoassay
# Conditions: not given
row,IC50,SMILES
1,34 µM,Cc1onc(-c2ccc(Br)o2)c1-c1ccccc1

# Biological target: COX-1/COX-2 (Homo sapiens) (UniProt P35354+P23219)
# Test: Selectivity ratio of IC50 for COX-2 in human whole blood to COX-1 in human whole blood
# Type: tissue-based
# Conditions: not given
row,Ratio IC50,SMILES
1,> 123,FC(F)(F)c1onc(-c2ccc(Cl)o2)c1-c1ccccc1
2,103,Cc1onc(-c2ccc(Br)o2)c1-c1ccccc1
3,> 20,CC(=O)OCc1onc(-c2ccc(Cl)o2)c1-c1ccccc1

# Biological target: T1, Prostaglandin G/H synthase 1
# Test: Inhibition of COX-1 in human whole blood assessed as inhibition of serum TXB2 level after 1 hr by radioimmunoassay
# Conditions: not given
row,IC50,SMILES
1,0.33 µM,Cc1onc(-c2ccc(Br)o2)c1-c1ccccc1
2,5 µM,CC(=O)OCc1onc(-c2ccc(Cl)o2)c1-c1ccccc1

# Biological target: T3, Prostaglandin G/H synthase 2 (Homo sapiens) (UniProt P35354)
# T3 sequence (whole entry): T2 sequence (P35354 whole entry)
# Test: Inhibition of COX-2 in human whole blood assessed as inhibition of LPS-induced plasma PGE2 level at 1000 uM by radioimmunoassay relative to control
# Conditions: not given
row,inhibition,SMILES
1,49%,FC(F)(F)c1onc(-c2ccc(Cl)o2)c1-c1ccccc1
2,40%,CC(=O)OCc1onc(-c2ccc(Cl)o2)c1-c1ccccc1

# Biological target: T1, Prostaglandin G/H synthase 1
# Test: Reversible inhibition of COX-1 in human THP1 cells assessed as inhibition of arachidonic acid-induced TXB2 formation at 100 uM incubated for 30 mins followed by compound washout measured 30 mins post arachidonic acid challenge by radioimmunoassay
# Type: cell-based
# Conditions: THP-1
row,inhibition,SMILES
1,Active,CC(=O)OCc1onc(-c2ccc(Cl)o2)c1-c1ccccc1

# Biological target: T1, Prostaglandin G/H synthase 1
# Test: Inhibition of COX-1 in human washed platelet assessed as inhibition of 10 uM arachidonic acid-induced TXB2 formation at 0.01 to 100 uM incubated for 25 mins prior to arachidonic acid challenge measured after 30 mins by radioimmunoassay
# Conditions: not given
row,inhibition,SMILES
1,Active,FC(F)(F)c1onc(-c2ccc(Cl)o2)c1-c1ccccc1
2,Active,Cc1onc(-c2ccc(Br)o2)c1-c1ccccc1

# Biological target: T1, Prostaglandin G/H synthase 1
# Test: Inhibition of COX-1 (unknown origin) in platelet rich plasma assessed as inhibition of arachidonic acid-induced TXB2 formation incubated for 5 mins prior to arachidonic acid challenge measured for 5 mins by aggregometric analysis
# Conditions: not given
IC50,inhibition,SMILES
3.7 µM,Dose-dependent effect,FC(F)(F)c1onc(-c2ccc(Cl)o2)c1-c1ccccc1
3.4 µM,Dose-dependent effect,Cc1onc(-c2ccc(Br)o2)c1-c1ccccc1
20 µM,,CC(=O)OCc1onc(-c2ccc(Cl)o2)c1-c1ccccc1

# Biological target: T1, Prostaglandin G/H synthase 1
# Test: Inhibition of COX-1 (unknown origin) in platelet rich plasma assessed as inhibition of collagen-induced platelet aggregation at 10 uM incubated for 5 mins prior to collagen challenge measured for 5 mins by aggregometric analysis relative to vehicle-treated control
# Conditions: not given
row,inhibition,SMILES
1,72%,FC(F)(F)c1onc(-c2ccc(Cl)o2)c1-c1ccccc1
2,78%,Cc1onc(-c2ccc(Br)o2)c1-c1ccccc1

# Biological target: T1, Prostaglandin G/H synthase 1
# Test: Inhibition of COX-1 (unknown origin) in platelet rich plasma assessed as inhibition of arachidonic acid-induced platelet aggregation at 30 uM incubated for 5 mins prior to arachidonic acid challenge measured for 5 mins by aggregometric analysis relative to vehicle-treated control
# Conditions: not given
row,inhibition,SMILES
1,97%,CC(=O)OCc1onc(-c2ccc(Cl)o2)c1-c1ccccc1

# Biological target: T1, Prostaglandin G/H synthase 1
# Test: Inhibition of COX-1 (unknown origin) in platelet rich plasma assessed as inhibition of collagen-induced platelet aggregation up to 3 uM incubated for 5 mins prior to collagen challenge measured for 5 mins by aggregometric analysis
# Conditions: not given
row,inhibition,SMILES
1,inactive,FC(F)(F)c1onc(-c2ccc(Cl)o2)c1-c1ccccc1
2,inactive,Cc1onc(-c2ccc(Br)o2)c1-c1ccccc1

# Biological target: Prostaglandin G/H synthase 2 (Homo sapiens) (UniProt P35354)
# Test: Inhibition of COX-2 in human MDA-MB-231 cells assessed as inhibition of arachidonic acid-induced PGE2 formation at 100 uM incubated for 30 mins prior to arachidonic acid challenge measured after 30 mins by radioimmunoassay relative to vehicle-treated control
# Conditions: not given
row,inhibition,SMILES
1,70%,FC(F)(F)c1onc(-c2ccc(Cl)o2)c1-c1ccccc1
2,70%,Cc1onc(-c2ccc(Br)o2)c1-c1ccccc1
3,inactive,CC(=O)OCc1onc(-c2ccc(Cl)o2)c1-c1ccccc1

# Tested on: Mus musculus
# Test: Antithrombotic activity in C57BL/6 mouse assessed as reduction of 6-keto-PGF1alpha level in urine at 20 mg/kg, po administered 3 days measured for 24 hrs post third dose
# Type: functional, organism-based
# Parameters: dose 20 mg/kg
# Conditions: not given
row,SMILES,Activity
1,FC(F)(F)c1onc(-c2ccc(Cl)o2)c1-c1ccccc1,inactive

# Tested on: Mus musculus
# Test: Antithrombotic activity in C57BL/6 mouse assessed as reduction of 11-dehydro-TXB2 level in urine at 20 mg/kg, po administered 3 days measured for 24 hrs post third dose relative to vehicle-treated control
# Type: functional
# Parameters: scale not given: the % may be the effect or the level left
# Conditions: not given
row,SMILES,Activity
1,FC(F)(F)c1onc(-c2ccc(Cl)o2)c1-c1ccccc1,70%

# Source: ChEMBL document CHEMBL2380195 (J Med Chem, 2013)
